This note sets out measurements from patent publication US20180200233A1, “COMPOSITIONS FOR PREVENTING CANCERS ASSOCIATED WITH HUMAN PAPILLOMA VIRUSES” (Loma Linda University, priority 2015, published 2018).

Test [1] deals with caspase 8 level in SiHa cells. In words: Immunoblot of caspase 8 level in SiHa cells. As to conditions: 50, 100 and 200 μM for 24 hr. In kind it is cell-based, human. As to the method: FIGS. 6A-B is an immunoblot and FIG. 6B is a graph showing that treatment with myricetin and spinacine (5) increased cellular levels of caspase 8 and p53. (FIG. 6A) SiHa cells (1×10^6 per well) were seeded into a 6-well plate and allowed to incubate overnight. The indicated concentrations of myricetin and spinacine were added, then cells were incubated for 24 h. Cells were then washed in 1×PBS, then harvested and the resulting level of caspase 8 was measured by immunoblot. (FIG. 6B) SiHa and C33A cells (1×10^6 per well) were seeded into a 6-well plate and allowed to incubate overnight. 200 μM of myricetin and 100 μM spinacine were added together with 4 μg/ml mitomycin C and incubated for 24 h. The resulting level of p53 was measured by ELISA, and the level of p53 found in untreated cells was set at 100%. […]
If this ability is due to inhibition of E6 functions, then an increase in the levels of caspase 8 and p53 should be observable in SiHa cells following treatment with myricetin and spinacine. To test this prediction, SiHa cells were treated with 50, 100, and 200 μM of myricetin or spinacine for 24 hr, and then measured the level of caspase 8 by immunoblot. […]
Cells (1×10^6) were collected and washed with PBS. […] Signals were measured using the Odyssey Infrared Imaging system (LI-COR Biosciences) and expressed in relative light units.
On the technique in general: In western blotting, separated proteins are transferred to a membrane and probed.

For test [2], the system named is p53 level in C33A cells. Kind of test: p53 ELISA in C33A cells. In kind it is cell-based, human. As to conditions: 200 μM myricetin, 100 μM spinacine; with mitomycin C, 24 h. As to the method: FIGS. 6A-B is an immunoblot and FIG. 6B is a graph showing that treatment with myricetin and spinacine (5) increased cellular levels of caspase 8 and p53. (FIG. 6A) SiHa cells (1×10^6 per well) were seeded into a 6-well plate and allowed to incubate overnight. The indicated concentrations of myricetin and spinacine were added, then cells were incubated for 24 h. Cells were then washed in 1×PBS, then harvested and the resulting level of caspase 8 was measured by immunoblot. (FIG. 6B) SiHa and C33A cells (1×10^6 per well) were seeded into a 6-well plate and allowed to incubate overnight. 200 μM of myricetin and 100 μM spinacine were added together with 4 μg/ml mitomycin C and incubated for 24 h. The resulting level of p53 was measured by ELISA, and the level of p53 found in untreated cells was set at 100%. Experiments were performed in triplicate, and error bars indicate the standard deviation.
If this ability is due to inhibition of E6 functions, then an increase in the levels of caspase 8 and p53 should be observable in SiHa cells following treatment with myricetin and spinacine. To test this prediction, SiHa cells were treated with 50, 100, and 200 μM of myricetin or spinacine for 24 hr, and then measured the level of caspase 8 by immunoblot. […] To ask how p53 levels were affected, an ELISA assay was employed. […]

On to `O=C(O)C1Cc2[nH]cnc2CN1` (stereo not shown) [Compound 5, 4,5,6,7-Tetrahydro-1H-imidazo(4,5-c)pyridine-6-carboxylic acid], for which the “caspase 8 levels in SiHa cells (in words)” value in test [1] is on record as “increase in caspase 8 at doses from 50 to 200 μM”. Also, the “change in p53 levels in C33A cells (in words)” value in test [2] is listed as “no significant change”.
In the case of `O=c1c(O)c(-c2cc(O)c(O)c(O)c2)oc2cc(O)cc(O)c12` [Myricetin, reference compound], the “caspase 8 levels in SiHa cells (in words)” value in test [1] is “increase in caspase 8 levels at doses of 100 μM and 200 μM”. In addition, in test [2], the “change in p53 levels in C33A cells (in words)” value is recorded as “no significant change”.
